Reference: patent publication US10561681B2, “Antimetastatic 2H-selenopheno[3,2-h]chromenes, synthesis thereof, and methods of using same agents” (Latvian Institute of Organic Synthesis, priority 2016, dated 2020)
Several values for one entry are separate records, joined by “and”; a condition that tells them apart may be missing. Identical values can stand only once. Like-named read-outs stand apart in the source and are kept apart here. Marks after values point to notes of the source that are not given here.

Experiments:
[1] = system: A549 (human lung carcinoma); experiment: In vitro cytotoxicity, MTT test; type: cell-based; conditions: Homo sapiens, A549, 72 h, read-out: Cytotoxicity IC50, A549
Protocol: (§1) Anticancer activity of selenopheno[h]chromenes was tested in vitro using cytotoxicity assay. […] About 2-9·10^4 cells/mL (depending on line nature) were placed in 96-well plates immediately after compounds were added to the wells. Untreated cells were used as a control. The plates were incubated for 72 h, 37° C., 5% CO2. The number of surviving cells was determined using 3-(4,5-dimethylthiazol-2-yl)-2,5-diphenyltetrazolinium bromide (MTT). MTT-test: after incubating culture medium was removed and 200 μL fresh medium with 10 mM HEPES was added in each well of the plate, than 20 μL MTT (2 mg/mL in HBSS) was added. After incubation (3 hr, 37° C., 5% CO2), the medium with MTT was removed and 200 μL DMSO were added at once to each sample. The samples were tested at 540 nm on Anthos HT II photometer.

CCL-8 (mouse sarcoma) = experiment: In vitro cytotoxicity, MTT test; type: cell-based; conditions: 72 h, read-out: Cytotoxicity IC50, CCL-8
Protocol: as §1

[2] = system: HT-1080 (human fibrosarcoma); experiment: In vitro cytotoxicity, MTT test; type: cell-based; conditions: read-out: Cytotoxicity IC50, HT-1080
Protocol: as §1

[3] = system: HepG2 (human hepatocellular carcinoma); experiment: In vitro cytotoxicity, MTT test; type: cell-based; conditions: read-out: Cytotoxicity IC50, HepG2
Protocol: as §1

[4] = system: MCF-7 (human breast adenocarcinoma, estrogen-positive); experiment: In vitro cytotoxicity, MTT test; type: cell-based; conditions: read-out: Cytotoxicity IC50, MCF-7
Protocol: as §1

[5] = system: MDA-MB-435s (human melanoma); experiment: In vitro cytotoxicity, MTT test; type: cell-based; conditions: 72 h, read-out: Cytotoxicity IC50, MDA-MB-435s
Protocol: as §1

[6] = system: MES-SA (human uterus sarcoma); experiment: In vitro cytotoxicity, MTT test; type: cell-based; conditions: 72 h, read-out: Cytotoxicity IC50, MES-SA
Protocol: as §1

MG-22A (mouse hepatoma) = experiment: In vitro cytotoxicity, MTT test; type: cell-based; conditions: 72 h, read-out: Cytotoxicity IC50, MG-22A
Protocol: as §1

[7] = system: SH-SY5Y (human neuroblastoma); experiment: In vitro cytotoxicity, MTT test; type: cell-based; conditions: Homo sapiens, SH-SY5Y, 72 h, read-out: Cytotoxicity IC50, SHSY5Y
Protocol: as §1

[8] = Basal cytotoxicity test, Neutral Red Uptake (NRU) assay; type: cell-based; conditions: for LD50 at 24 h: mouse, po, acute oral LD50 calculated from 3T3 NRU IC50 by regression formula, read-out: Basal cytotoxicity Estimated* LD50; for IC50 at 24 h: normal mouse embryo fibroblasts, read-out: Cytotoxicity IC50, 3T3
Protocol: In parallel, the borderline concentration relevant to the highest tolerated dose has been determined for each compound using the NIH 3T3 (mouse embryo fibroblasts) cell line and the basal cytotoxicity obtained has then been used to predict the starting doses for in vivo acute oral LD50 values in rodents.
the Neutral Red Uptake (NRU) assay was performed according to the standard protocol of Stokes modified by the NICEATM-ECVAM validation study. The NRU cytotoxicity assay procedure is based on the ability of viable cells to incorporate and bind Neutral Red, a supravitally dye. Balb/c 3T3 (Mouse Swiss Albino embryo fibroblast) cells (9000 cells/well) were placed into 96-well plates for 24 h in Dulbecco's modified Eagle's (DMEM) medium containing 5% fetal bovine serum. The cells were then exposed to the test compounds over a range of […] concentrations (1000, 316, 100, 31, 10, 3, 1 μg/ml) for 24 h. Untreated cells were used as a control. After 24 h, the medium was removed from all plates. Then, 250 μL of Neutral Red solution were added (0.05 mg/mL NR in DMEM 24 h pre-incubated at 37° C. and then filtered before use through 0.22-μm syringe filter). Plates were incubated for 3 h and then cells were washed three times with PBS. The dye within viable cells was released by extraction with a mixture of acetic acid, ethanol and water (1:50:49). Absorbance of Neutral Red was measured using a spectrophotometer multiplate reader (TECAN, Infinite M1000) at 540 nm. The percentage of living cells was calculated using the formula: OD (treated cells)*100/OD (control cells). The IC50 values were calculated using the programme Graph Pad Prism® 3.0.
Data from the in vitro tests were used for estimating the starting dose for acute oral systemic toxicity tests in rodents. […] The value is recalculated to mg/kg and compounds are evaluated in accordance with four toxicity categories: category 1: LD50≤5 mg/kg (highly toxic); category 2: 5<LD50≤50 mg/kg (moderately toxic); category 3: 50<LD50≤300 mg/kg (slightly toxic); category 4: 300<LD50≤2 000 mg/kg (practically non-toxic).

4T1 carcinoma cells = experiment: 4T1 model of lung metastasis (tail vein) in Balb/c mice; type: in vivo, mouse; conditions: for Spleen weight increase: 4T1 i.v., control with tumor +147%; for % of the total area occupied by metastases, % (control = 100) / % of the total area occupied by metastases, Mean ± SD: s.c., days 1, 4, 7, 9, 11, 14
Protocol: Compounds were administered s.c. at 1, 4, 7, 9, 11 and 14th days. 4T1 cells (10,000/0.1 ml PBS) were injected i.v. into syngeneic mice. The metastasis at day 16 are shown for each mouse, and averages are provided for illustration.
Balb/c mice were injected with 100,000 4T1 […] cancer cells into the tail vein and treatment started 24 hr later with subcutaneous (s.c.), intraperitoneal (i.p.) injections or oral administration (p.o.) of compounds according to the following scheme: 1, 4, 7, 9, 11 and 14th days in dose 20 or 40 mg/kg. Compounds were dissolved in DMSO and the solution were diluted by water (DMSO final concentration <1%). Mice in the control group were similarly given doses of 0.1 mL of water with DMSO. Twenty-one days later, all mice were anesthetized with ketamine/xylazine and euthanized, the mice were sacrificed spleens were excised from the mice and weighed. In each experiment, mice were weighed twice weekly.
(Lewis et al, Cancer Res, 2005, 65) Pulmonary metastases were enumerated by intra-tracheal injection of India ink (15% India Ink, 85% water, 3 drops NH4OH/100 ml). India ink injected lungs were washed in Feket's solution (300 ml 70% EtOH, 30 ml 37% formaldehyde, 5 ml glacial acetic acid) and then placed fresh Feket's solution overnight. […] White tumor nodules against a black lung background were measured.

malignant tumor cells = experiment: In vitro cytotoxicity on monolayer tumor cell lines (panel, summary in words); type: cell-based; conditions: summary of Table 1
Protocol: Anticancer activity of selenopheno[h]chromenes was tested in vitro using cytotoxicity assay. Thus, monolayer tumor cell lines MDA-MB-435s (human melanoma), MCF-7 (human breast adenocarcinoma, estrogen-positive), MES-SA (human uterus sarcoma), HT-1080 (human fibrosarcoma), A549 (human lung carcinoma), SH-SY5Y (human neuroblastoma), CCL-8 (mouse sarcoma), MG-22A (mouse hepatoma), and HepG2 (human hepatocellular carcinoma) were cultured in standard medium DMEM (Dulbecco's modified Eagle's medium) (“Sigma”) supplemented with 10% fetal bovine serum (“Sigma”). About 2-9·10^4 cells/mL (depending on line nature) were placed in 96-well plates immediately after compounds were added to the wells. Untreated cells were used as a control. The plates were incubated for 72 h, 37° C., 5% CO2. The number of surviving cells was determined using 3-(4,5-dimethylthiazol-2-yl)-2,5-diphenyltetrazolinium bromide (MTT). MTT-test: after incubating culture medium was removed and 200 μL fresh medium with 10 mM HEPES was added in each well of the plate, than 20 μL MTT (2 mg/mL in HBSS) was added. After incubation (3 hr, 37° C., 5% CO2), the medium with MTT was removed and 200 μL DMSO were added at once to each sample. The samples were tested at 540 nm on Anthos HT II photometer.

Structure (SMILES)	IC50 [1]	IC50 (CCL-8 (mouse sarcoma))	IC50 ([2]; HT-1080, 72 h)	IC50 ([3]; HepG2, 72 h)	IC50 ([4]; MCF7, 72 h)	IC50 [5]	IC50 [6]	IC50 (MG-22A (mouse hepatoma))	IC50 [7]	LD50 at 24 h [8]	IC50 at 24 h [8]	Cytotoxicity on cancer cell lines (malignant tumor cells)	IC50 ([1]; MTT, 72 h)	IC50 (CCL-8 (mouse sarcoma); MTT)	IC50 ([2]; HT-1080, MTT, 72 h)	IC50 ([3]; HepG2, MTT, 72 h)	IC50 ([4]; MCF7, MTT, 72 h)	IC50 ([5]; MTT)	IC50 ([6]; MTT)	IC50 (MG-22A (mouse hepatoma); MTT)	also measured
CN1CCN(Cc2[se]c3c(ccc4cc(C(=O)O)c(=O)oc43)c2Br)CC1.Cl [Compound I-15, 7-Bromo-8-/(4-methylpiperazin-1-yl/methyl)-2-oxo-2H-selenopheno[3,2-h]chromene-3-carboxylic acid hydrochloride]	> 192 µM	> 122 µM	> 192 µM	> 192 µM	> 192 µM	> 122 µM	> 117 µM	186 ± 7 µM	> 192 µM	3200 µmol/kg and 1670 mg/kg	192 ± 7 µM	low toxic to the cancer cell lines	–	–	–	–	–	–	–	–	Spleen weight increase (4T1 carcinoma cells; dose 20 mg/kg): 55%; Spleen weight increase (4T1 carcinoma cells; dose 40 mg/kg): 14%; Prevention of formation of 4T1 carcinoma lung metastasis (4T1 carcinoma cells; five mice per group): 98%; % of the total area occupied by metastases, % (control = 100) (4T1 carcinoma cells; 20 mg/kg): 4* %; % of the total area occupied by metastases, Mean ± SD (4T1 carcinoma cells; 20 mg/kg, control 50 ± 33): 2 ± 2%; % of the total area occupied by metastases, % (control = 100) (4T1 carcinoma cells; 40 mg/kg): 1* %; % of the total area occupied by metastases, Mean ± SD (4T1 carcinoma cells; 40 mg/kg): 0 ± 1%
Cl.O=C(O)c1cc2ccc3c(Br)c(CN4CCOCC4)[se]c3c2oc1=O [Compound I-14, 7-Bromo-2-oxo-8-(morpholin-1-ylmethyl)-2H-selenopheno[3,2-h]chromene-3-carboxylic acid hydrochloride]	51 ± 8 µM	79 ± 9 µM	100 ± 6 µM	106 ± 9 µM	95 ± 9 µM	156 ± 9 µM	65 ± 6 µM	59 ± 2 µM	35 ± 9 µM	1320 mg/kg and 2600 µmol/kg	43 ± 2 µM	remained cytotoxicity on cancer cell lines	–	–	–	–	–	–	–	–	–
Cl.O=C(O)c1cc2ccc3c(Br)c(CN4CCCCC4)[se]c3c2oc1=O [Compound I-13, 7-Bromo-2-oxo-8-(piperidin-1-ylmethyl)-2H-selenopheno[3,2-h]chromene-3-carboxylic acid hydrochloride]	129 ± 6 µM	> 122 µM	197 ± 3 µM	> 197 µM	119 ± 2 µM	182 ± 11 µM	103 ± 9 µM	49 ± 6 µM	> 197 µM	4300 µmol/kg and 2180 mg/kg	197 ± 8 µM	–	–	–	–	–	–	–	–	–	–
O=C(c1cc2ccc3c(Br)c(C4=CCCCC4)[se]c3c2oc1=O)N1CCOCC1 [Compound I-20, 7-Bromo-8-(cyclohex-1-en-1-yl)-3-(morpholine-1-carbonyl)-2H-selenopheno[3,2-h]chromen-2-one]	–	–	–	–	–	–	–	–	–	3000 µmol/kg and 1600 mg/kg	> 192 µM	–	38 ± 5 µM	126 ± 4 µM	92 ± 12 µM	63 ± 6 µM	81 ± 7 µM	13 ± 1 µM	61 ± 4 µM	117 ± 7 µM	IC50 ([7]; MTT): > 117 µM
O=C(c1cc2ccc3c(Br)c(C4=CCCCC4)[se]c3c2oc1=O)N1CCCCC1 [Compound I-19, 7-Bromo-8-(cyclohex-1-en-1-yl)-3-(piperidine-1-carbonyl)-2H-selenopheno[3,2-h]chromen-2-one]	–	–	–	–	–	–	–	–	–	1000 µmol/kg and 500 mg/kg	161 ± 23 µM	–	100 ± 3 µM	> 193 µM	50 ± 5 µM	103 ± 15 µM	125 ± 8 µM	51 ± 8 µM	105 ± 4 µM	41 ± 2 µM	IC50 ([7]; MTT): > 117 µM
